Values after ≈ are worked out from the molar mass of the structure shown. Values joined by “and” are separate entries in the source; they are usually repeats but may differ in a detail not shown here. Equal entries are not always repeated. Where two headings read alike, the source gives them in different places.
What was measured:
S. epidermidis = experiment: MIC (microbroth dilution); assay type: cell-based, Staphylococcus epidermidis; conditions: Staphylococcus epidermidis, read-out: MIC
Procedure: All bacteria were maintained on tryptic soy agar (TSA), except Streptococcus spp., which were maintained on Columbia agar plates containing 5% horse blood. […] Bacteria were grown to stationary phase in liquid culture overnight, with shaking at 200 rpm, before being back diluted to the relevant starting concentration for each assay below. MICs were measured by the microbroth dilution method. […] Absorbance at OD600 was read on a CLARIOstar spectrophotometer (BMG Labtech) and the MIC was defined as the minimum concentration of compound where no visible growth was detected. […] MICs were also performed in the presence of the outer membrane permeator, polymyxin b nonapeptide (PMBN) following the same MIC method but with the following variation. The 2-fold dilution series of compound was prepared as above, then 50 μL of PMBN at a final concentration of 30 μg/mL was added to relevant wells, while 50 μL/well of blank media was added to the remaining wells. Bacteria were then added at 50 μL/well for a starting concentration as above. […] The MICs were read and defined as above. All animal procedures were performed by the contract research organization Pharmacology Discovery Services Taiwan in accordance with the Guide for the Care and Use of Laboratory Animals. The procedures were approved by the Institutional Ethics Committee of Pharmacology Discovery Services Taiwan, Ltd. (approval no. AB127662), in compliance with animal welfare legislation in Taiwan.

CYP2B6 = CYP2B6 (Homo sapiens, UniProt P20813); experiment: CYP inhibition; conditions: HLM, bupropion substrate, 10 μM
Procedure: Cytochrome P450 inhibition was assessed in vitro using human recombinant enzymes in microsomal preparations. […] Enzyme activity was quantified by monitoring formation of substrate-specific metabolites, and percent inhibition was calculated relative to vehicle control.

S. dysgalactiae = experiment: MIC (microbroth dilution); assay type: cell-based; conditions: for MIC: Streptococcus dysgalactiae
Procedure, shortened: (§1)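 Broth microdilution MICs were run in tryptic soy broth, or for Streptococcus spp. in cation-adjusted Mueller Hinton broth with 2.5% lysed horse blood, using overnight stationary-phase cultures back-diluted. MIC was the lowest concentration with no visible growth, with OD600 also read. Some MICs included PMBN at 30 μg/mL final.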

S. pyogenes = experiment: MIC (microbroth dilution); assay type: cell-based, Streptococcus pyogenes; conditions: for MIC: Streptococcus pyogenes
Procedure: (§2) All bacteria were maintained on tryptic soy agar (TSA), except Streptococcus spp., which were maintained on Columbia agar plates containing 5% horse blood. All bacterial assays were carried out in tryptic soy broth (TSB), except for Streptococcus spp. which were grown in cation-adjusted Mueller Hinton broth containing 2.5% lysed horse blood. Bacteria were grown to stationary phase in liquid culture overnight, with shaking at 200 rpm, before being back diluted to the relevant starting concentration for each assay below. MICs were measured by the microbroth dilution method. […] Absorbance at OD600 was read on a CLARIOstar spectrophotometer (BMG Labtech) and the MIC was defined as the minimum concentration of compound where no visible growth was detected. The compounds were prepared as a DMSO stock and equivalent concentrations of DMSO had no effect on bacterial growth. MICs were also performed in the presence of the outer membrane permeator, polymyxin b nonapeptide (PMBN) following the same MIC method but with the following variation. The 2-fold dilution series of compound was prepared as above, then 50 μL of PMBN at a final concentration of 30 μg/mL was added to relevant wells, while 50 μL/well of blank media was added to the remaining wells. Bacteria were then added at 50 μL/well for a starting concentration as above. Thirty μg/mL of PMBN had no effect on bacterial growth. The MICs were read and defined as above. All animal procedures were performed by the contract research organization Pharmacology Discovery Services Taiwan in accordance with the Guide for the Care and Use of Laboratory Animals. The procedures were approved by the Institutional Ethics Committee of Pharmacology Discovery Services Taiwan, Ltd. (approval no. AB127662), in compliance with animal welfare legislation in Taiwan.

E. faecium = experiment: MIC (microbroth dilution); assay type: cell-based, Enterococcus faecium; conditions: for MIC: Enterococcus faecium
Procedure: as §2

A. baumannii = A. baumannii efflux chequerboard assay; assay type: cell-based, Acinetobacter baumannii; conditions: for MIC: Acinetobacter baumannii
Procedure: Checkerboard assays were performed by preparing two separate 2-fold dilution series of compounds in two 96 well plates, one horizontally, one vertically. […] Plates were incubated at 37 C for 20 h and the absorbance (OD600) was read on a CLARIOstar spectrophotometer (BMG Labtech). The fractional inhibitory concentration was calculated as follows: ΣFIC = [(MIC of A in combination)/(MIC of A alone)] + [(MIC of B in combination)/(MIC of B alone)].

Pseudomonas aeruginosa = experiment: MIC (microbroth dilution); assay type: cell-based
Procedure, shortened: as §1

Sequence of CYP2B6 (P20813 whole entry): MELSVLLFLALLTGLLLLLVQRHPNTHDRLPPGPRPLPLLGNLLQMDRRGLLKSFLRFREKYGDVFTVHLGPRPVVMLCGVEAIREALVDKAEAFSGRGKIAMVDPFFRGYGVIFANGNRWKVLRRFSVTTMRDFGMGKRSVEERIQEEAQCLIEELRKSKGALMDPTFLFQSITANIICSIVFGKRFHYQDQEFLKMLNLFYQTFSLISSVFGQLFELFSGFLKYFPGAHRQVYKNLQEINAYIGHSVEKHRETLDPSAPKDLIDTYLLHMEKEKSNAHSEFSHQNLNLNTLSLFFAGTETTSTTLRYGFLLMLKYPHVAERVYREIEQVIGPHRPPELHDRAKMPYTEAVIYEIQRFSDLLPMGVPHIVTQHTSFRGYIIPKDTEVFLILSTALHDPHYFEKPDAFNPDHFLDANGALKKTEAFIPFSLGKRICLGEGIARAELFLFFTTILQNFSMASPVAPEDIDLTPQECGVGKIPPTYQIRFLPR

SMILES: Cc1cc(C)nc(N[C@@H]2CCN(c3c(F)cc4c(=O)c(C(=O)O)cn5c4c3OC[C@@H]5C)C2)n1 [Compound 50, (S)-10-((R)-3-((4,6-Dimethylpyrimidin-2-yl)amino)pyrrolidin-1-yl)-9-fluoro-3-methyl-7-oxo-2,3-dihydro-7H-[1,4]oxazino[2,3,4-ij]quinoline-6-carboxylic acid]
- MIC (S. epidermidis; ATCC12228, ATCC 12228): 0.03 µg/mL (≈ 0.0662 µM)
- MIC (S. epidermidis; ATCC 51625 / MRSE, MRSE (ATCC 51625)): 0.03 µg/mL (≈ 0.0662 µM)
- MIC (S. epidermidis; NRS101): 0.03 µg/mL (≈ 0.0662 µM)
- MIC (S. epidermidis; GIS (NRS7)): 0.5 µg/mL (≈ 1.1 µM)
- MIC (S. epidermidis; GIS (NRS8)): 1 µg/mL (≈ 2.21 µM)
- MIC (S. epidermidis; GIS (NRS60)): 0.06 µg/mL (≈ 0.132 µM)
- CYP2B6 inhibition (CYP2B6): 4.821% and < 10%
- MIC (S. dysgalactiae; 10238, read-out: MIC): ≤ 0.03 µg/mL
- MIC (S. dysgalactiae; 13759, read-out: MIC): ≤ 0.03 µg/mL
- MIC (S. dysgalactiae; 13762, read-out: MIC): ≤ 0.03 µg/mL
- MIC (S. dysgalactiae; 81251, read-out: MIC): ≤ 0.03 µg/mL
- MIC (S. dysgalactiae; 81553): 0.125 µg/mL (≈ 0.276 µM)
- MIC (S. dysgalactiae; 84143, read-out: MIC): 0.06 µg/mL (≈ 0.132 µM)
- MIC (S. dysgalactiae; 84557, read-out: MIC): ≤ 0.03 µg/mL
- MIC (S. dysgalactiae; 84574, read-out: MIC): 0.06 µg/mL (≈ 0.132 µM)
- MIC (S. dysgalactiae; n = 8, read-out: modal MIC): ≤ 0.03 µg/mL
- MIC range (S. dysgalactiae; n = 8): ≤ 0.03 to 0.125 µg/mL
- MIC (S. pyogenes; 8198, read-out: MIC): ≤ 0.03 µg/mL
- MIC (S. pyogenes; 12048, read-out: MIC): ≤ 0.03 µg/mL
- MIC (S. pyogenes; 13736, read-out: MIC): ≤ 0.03 µg/mL
- MIC (S. pyogenes; 13737): 0.125 µg/mL (≈ 0.276 µM)
- MIC (S. pyogenes; 13738): 0.125 µg/mL (≈ 0.276 µM)
- MIC (S. pyogenes; 80661, read-out: MIC): ≤ 0.03 µg/mL
- MIC (S. pyogenes; 81017, read-out: MIC): 0.06 µg/mL (≈ 0.132 µM)
- MIC (S. pyogenes; 82434, read-out: MIC): ≤ 0.03 µg/mL
- MIC (S. pyogenes; 82896, read-out: MIC): ≤ 0.03 µg/mL
- MIC (S. pyogenes; 83581, read-out: MIC): ≤ 0.03 µg/mL
- MIC (S. pyogenes; 84285, read-out: MIC): ≤ 0.03 µg/mL
- MIC (S. pyogenes; 86519, read-out: MIC): 0.06 µg/mL (≈ 0.132 µM)
- MIC (S. pyogenes; ATCC14289, ATCC 14289): 0.125 µg/mL (≈ 0.276 µM)
- MIC (S. pyogenes; ATCC19615, ATCC 19615): 0.125 µg/mL (≈ 0.276 µM)
- MIC (S. pyogenes; n = 12 isolates, read-out: modal MIC): ≤ 0.03 µg/mL
- MIC range (S. pyogenes; n = 12 isolates): ≤ 0.03 to 0.125 µg/mL
- MIC (E. faecium; ATCC19434, ATCC 19434, read-out: MIC): 1 µg/mL (≈ 2.21 µM)
- MIC (E. faecium; ATCC700221, VanA (ATCC 700221), read-out: MIC): 0.5 µg/mL (≈ 1.1 µM)
- MIC (E. faecium; BAA2320, VanA (BAA-2320), read-out: MIC): 1 µg/mL (≈ 2.21 µM)
- MIC (E. faecium; CCUG56431, VanB (CCUG 56431), read-out: MIC): 0.25 µg/mL (≈ 0.551 µM)
- MIC (E. faecium; CCUG56858): 0.125 µg/mL (≈ 0.276 µM)
- MIC (E. faecium; CCUG58354, VanD (CCUG 58354), read-out: MIC): 0.25 µg/mL (≈ 0.551 µM)
- MIC (E. faecium; CCUG59167, VanA (TUH44-29; CCUG 59167), read-out: MIC): 1 µg/mL (≈ 2.21 µM)
- MIC range (E. faecium; including VanA, VanB, and VanD phenotypes): 0.125 to 1 µg/mL

SMILES: C[C@H]1COc2c(N3CCN(C)CC3)c(F)cc3c(=O)c(C(=O)O)cn1c23 [Levofloxacin, (S)-9-Fluoro-3-methyl-10-(4-methylpiperazin-1-yl)-7-oxo-2,3-dihydro-7H-[1,4]oxazino[2,3,4-ij]quinoline-6-carboxylic acid, reference compound]
- MIC +50 (0.25x MIC) (A. baumannii; A. baumannii ATCC 17978): 0.007 to 0.06 µg/mL
- MIC +50 (0.5x MIC) (A. baumannii; A. baumannii ATCC 17978): 0.009 to 0.06 µg/mL
- MIC +50 (0.25x MIC) (A. baumannii; A. baumannii AYE): 0.014 to 1.88 µg/mL
- MIC +50 (0.5x MIC) (A. baumannii; A. baumannii AYE): 0.012 to 0.9 µg/mL
- MIC (A. baumannii; ATCC17978, read-out: MIC alone): 0.125 µg/mL
- MIC (A. baumannii; read-out: MIC alone): 4 µg/mL
- MIC (Pseudomonas aeruginosa; CAS4, + PMBN): ≤ 0.125 µg/mL
- MIC (Pseudomonas aeruginosa; CFL 004 CRCN, + PMBN): 16 µg/mL
- MIC (Pseudomonas aeruginosa; GH12, + PMBN): 4 µg/mL
- MIC (Pseudomonas aeruginosa; NCTC 10662, + PMBN): ≤ 0.125 µg/mL
- MIC (Pseudomonas aeruginosa; NCTC 12903, + PMBN): ≤ 0.125 µg/mL
- MIC (Pseudomonas aeruginosa; NCTC 13359, + PMBN): 0.25 µg/mL
- MIC (Pseudomonas aeruginosa; PAO1, + PMBN): 0.125 µg/mL
- MIC (Pseudomonas aeruginosa; PAO1 ΔmexB, + PMBN): ≤ 0.03 µg/mL
- MIC (Pseudomonas aeruginosa; Pseudomonas aeruginosa, CAS4): 2 µg/mL (≈ 5.53 µM)
- MIC (Pseudomonas aeruginosa; Pseudomonas aeruginosa, GH12): 64 µg/mL (≈ 177 µM)
- MIC (Pseudomonas aeruginosa; Pseudomonas aeruginosa, GH100): 0.25 µg/mL (≈ 0.692 µM)
- MIC (Pseudomonas aeruginosa; Pseudomonas aeruginosa, NCTC10662, NCTC 10662): 2 µg/mL (≈ 5.53 µM)
- MIC (Pseudomonas aeruginosa; Pseudomonas aeruginosa, NCTC12903, NCTC 12903): 4 µg/mL (≈ 11.1 µM)
- MIC (Pseudomonas aeruginosa; Pseudomonas aeruginosa, NCTC13359, NCTC 13359): 4 µg/mL (≈ 11.1 µM)
- MIC (Pseudomonas aeruginosa; Pseudomonas aeruginosa, PAO1): 0.5 µg/mL (≈ 1.38 µM)
- MIC (Pseudomonas aeruginosa; Pseudomonas aeruginosa, PAO1, PAO1): 2 µg/mL (≈ 5.53 µM)
- MIC (Pseudomonas aeruginosa; Pseudomonas aeruginosa, CFL 004 CRCN, read-out: MIC): 128 µg/mL (≈ 354 µM)
- MIC50 (Pseudomonas aeruginosa; Pseudomonas aeruginosa, in the presence of PMBN, n = 7 strains): 0.125 µg/mL
